The record followed here is US20110178072A1, “STEREOSPECIFICITY OF METHYLSULFINYL REDUCTION” (priority 2008, published 2011).

For one experiment, the target named is T1, mouse MsrB1-Cys (Mus musculus, UniProt Q9JLC3, U95C).
T1 sequence (Q9JLC3 1-116 U95C): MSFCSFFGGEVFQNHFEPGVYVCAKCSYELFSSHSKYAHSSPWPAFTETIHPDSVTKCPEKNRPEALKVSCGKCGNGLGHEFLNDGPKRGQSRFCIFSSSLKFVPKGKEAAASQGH
Put plainly: Reduction of DMSO by mouse MsrB1-Cys (GC analysis). The class given is biochemical. As to conditions: in the presence of DTT; selenocysteine replaced with cysteine. The procedure:
DMSO, which is used as a preservative for stem cells, solvent for drugs, and a drug itself with anti-inflammatory and free radical scavenging properties, was studied for its reduction by Msrs. FIG. 17A details a GC analysis of DMSO incubated with mouse MsrA and DTT. FIG. 17B provides a GC analysis of DMSO incubated with mouse MsrB2 and DTT. FIG. 17C illustrates a GC analysis of DMSO incubated with mouse MsrB1-Cys and DTT. FIG. 17D provides specific activities of various Msrs for the reduction of DMSO (left to right): mouse MsrA in the presence of DTT as a reductant, mouse MsrB2 in the presence of DTT, and mouse MsrB1-Cys in the presence of DTT.

The next experiment addresses T2, mouse MsrA (Mus musculus, UniProt Q9D6Y7).
T2 sequence (Q9D6Y7 21-233): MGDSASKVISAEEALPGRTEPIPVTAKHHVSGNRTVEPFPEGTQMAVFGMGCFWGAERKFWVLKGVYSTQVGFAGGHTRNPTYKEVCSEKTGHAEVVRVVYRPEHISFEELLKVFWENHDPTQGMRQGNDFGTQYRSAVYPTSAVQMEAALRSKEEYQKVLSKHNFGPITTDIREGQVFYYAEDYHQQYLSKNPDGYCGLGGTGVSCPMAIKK
Put plainly: Reduction of methylsulfinyl compounds by mouse MsrA (HPLC/GC analysis). The experiment is classed as biochemical. As to the method: (§1) The isothiocyanate group in R,S-sulforaphane reacts with sulfhydryls to form conjugated compounds. First, the compound was treated with excess DTT (which has two free sulfhydryl groups) to conjugate the isothiocyanate group of R,S-sulforaphane or S-sulforaphane with the sulfhydryl group of DTT and the resulting adducts were then used as substrates for mouse MsrA and mouse MsrB2. The reduction of the DTT-sulforaphane adduct was analyzed using HPLC analysis of the adduct with buffer (as control; FIG. 12A), mouse MsrB2 (FIG. 12B), and mouse MsrA (FIG. 12C). The arrows indicate the migration of the DTT-erucin adduct. […] FIG. 13 illustrates the HPLC analysis of the DTT-R-sulforaphane adduct incubated with buffer (as control) (FIG. 13A), mouse MsrA (FIG. 13B), and mouse MsrB2 (FIG. 13C). Again, the arrows show the migration of the DTT-erucin adduct.
(§2) Mesoridazine, which has a mild effect on treating schizophrenia, was examined to determine its reduction by yeast fRMsr, mouse MsrB2, and mouse MsrA (FIG. 14). The peak of m/z 387.6 corresponds to the molecular weight of mesoridazine and the peak of m/z 371.6 corresponds to the molecular weight of thioridazine. FIG. 14B details the HPLC analysis of mesoridazine incubated with mouse MsrB2 and DTT. FIG. 14C provides the HPLC analysis of mesoridazine incubated with yeast fRMsr and DTT. FIG. 14D illustrates the specific activities of various Msrs for the reduction of mesoridazine (left to right): mouse MsrA in the presence of DTT as a reductant, mouse MsrA in the presence of the thioredoxin reducing system, mouse MsrB2 in the presence of DTT, and yeast fRMsr in the presence of DTT.
(§3) The reduction of triclabendazole sulfoxide was examined. This compound has been used to treat liver fluke, Fasciola hepatica and Fasciola gigantica, in sheep, goat, and cattle as a form of triclabendazole. Triclabendazole can be metabolized to several different forms including triclabendazole sulfoxide, which is an oxidized form of methylsulfide group, in biological systems. FIG. 15A provides an HPLC analysis of triclabendazole sulfoxide incubated with mouse MsrA and DTT. The peak of m/z 375.2 and 377.2 correspond to the molecular weight of triclabendazole sulfoxide and the peak of m/z 359.2 and 361.2 correspond to the molecular weight of triclabendazole. FIG. 15B illustrates an HPLC analysis of triclabendazole sulfoxide incubated with mouse MsrB2 and DTT. FIG. 15C details an HPLC analysis of triclabendazole sulfoxide incubated with yeast fRMsr and DTT. FIG. 15D illustrates the specific activities of various Msrs for the reduction of triclabendazole sulfoxide (left to right): mouse MsrA in the presence of DTT as a reductant, mouse MsrA in the presence of the thioredoxin reducing system, mouse MsrB2 in the presence of DTT, and yeast fRMsr in the presence of DTT.
(§4) Another methylsulfinyl-containing drug, sulmazole, was tested as a substrate for Msrs. This drug is pharmacologically active as a cardiotonic agent and is a phosphodiesterase inhibitor. FIG. 16A details an HPLC analysis of sulmazole incubated with mouse MsrA and DTT. The peak of m/z 288.3 corresponds to the molecular weight of sulmazole and the peak of m/z 272.3 corresponds to the molecular weight of reduced form of sulmazole. FIG. 16B illustrates an HPLC analysis of sulmazole incubated with mouse MsrB2 and DTT. FIG. 16C provides an HPLC analysis of sulmazole incubated with yeast fRMsr and DTT. FIG. 16D details the specific activities of various Msrs for the reduction of sulmazole (left to right): mouse MsrA in the presence of DTT as a reductant, mouse MsrA in the presence of the thioredoxin reducing system, mouse MsrB2 in the presence of DTT, and yeast fRMsr in the presence of DTT.
DMSO, which is used as a preservative for stem cells, solvent for drugs, and a drug itself with anti-inflammatory and free radical scavenging properties, was studied for its reduction by Msrs. FIG. 17A details a GC analysis of DMSO incubated with mouse MsrA and DTT. […]

The next experiment deals with mouse MsrB2 (Mus musculus, UniProt Q78J03). Put plainly: Reduction of methylsulfinyl compounds by mouse MsrB2 (HPLC/GC analysis). The experiment is classed as biochemical. The settings on record: in the presence of DTT. As to the method:
as §1, §2, §3
as §4, with “FIG. 16D details the specific activities of various Msrs for the reduction of sulmazole (left to right): mouse MsrA in the presence of DTT as a reductant, mouse MsrA in the presence of the thioredoxin reducing system, mouse MsrB2 in the presence of DTT, and yeast fRMsr in the presence of DTT.” left out

Another experiment concerns the target T3, yeast fRMsr (Saccharomyces cerevisiae, UniProt P36088).
T3 construct: His-tag (C); made in house; host or cells: E. coli BL21 (DE3), pET21b
T3 sequence (P36088 1-180): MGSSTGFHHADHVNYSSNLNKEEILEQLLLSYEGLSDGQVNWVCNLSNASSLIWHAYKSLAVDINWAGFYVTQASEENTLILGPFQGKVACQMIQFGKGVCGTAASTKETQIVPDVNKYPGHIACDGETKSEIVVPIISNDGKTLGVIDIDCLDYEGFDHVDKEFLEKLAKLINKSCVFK
As to the kind of experiment: Reduction of methylsulfinyl drugs by yeast fRMsr (HPLC analysis). As to conditions: in the presence of DTT. The experiment is classed as biochemical. As to the method: as §2
The reduction of triclabendazole sulfoxide was examined. This compound has been used to treat liver fluke, Fasciola hepatica and Fasciola gigantica, in sheep, goat, and cattle as a form of triclabendazole. Triclabendazole can be metabolized to several different forms including triclabendazole sulfoxide, which is an oxidized form of methylsulfide group, in biological systems. FIG. 15A provides an HPLC analysis of triclabendazole sulfoxide incubated with mouse MsrA and DTT. […]

In another experiment the test system is SK-Hep1 cells. As to the kind of experiment: Growth of SK-Hep1 cells in media supplemented or not with sodium selenite. The experiment is classed as cell-based, human. The settings on record: 100 nM; FBS-supplemented and insulin/transferrin media. As to the method:
Growth of SK-Hep1 cells was analyzed in modified DMEM media containing Met, Met-SO, Met-RO, or Met-RSO (0.1 mM of each amino acid) or with no addition of these compounds. In addition, media were supplemented or not with 100 nM sodium selenite. Cells were analyzed at 0, 24, 48, and 72 hours. Another experiment involving SK-Hep1 cells was performed with cells grown in serum-free modified DMEM medium, containing insulin (5 μg/mL) and transferrin (10 μg/mL), Met or Met-RSO (0.1 mM of each amino acid) and 100 nM sodium selenite (or with no addition of this compound), and separately in 10% dialyzed FBS-containing DMEM medium containing 0.1 mM Met with 100 nM sodium selenite (or not). Cells were analyzed at 0, 24, 48, and 72 hours. Cell growth assays were carried out as described below.
Proliferation Assay—Cell growth was quantified using colorimetric MTS assay (Promega). Cells in regular DMEM medium were plated in 96-well plates at 5×10^3 cells/well, washed with PBS, and specialized DMEM media were added that contained Met, Met-SO, Met-RO, or Met-RSO 24 hours after plating. […] After 90 minutes of incubation at 37° C. in the atmosphere of 5% CO2, cell proliferation was measured at indicated time periods from 0 to 96 hours at 450 nm in a plate reader. […]

The mark [1] stands for this setting: thioredoxin system as reductant.

Sequence of mouse MsrB2 (Q78J03 43-175): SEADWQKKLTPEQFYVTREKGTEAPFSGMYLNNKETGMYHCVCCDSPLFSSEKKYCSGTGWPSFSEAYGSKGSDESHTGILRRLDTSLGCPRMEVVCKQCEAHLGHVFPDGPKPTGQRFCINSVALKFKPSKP

With Dimethylsulfoxide [DMSO], the “Reduction by mouse MsrB1-Cys” value at mouse MsrB1-Cys is “very inefficient substrate”. For the same compound, the “Reduction by mouse MsrA” value on mouse MsrA (DTT as a reductant) is reported as “can be reduced”. Besides, at mouse MsrB2, the “Reduction by mouse MsrB2” value is recorded as “very inefficient substrate”.
As for `COc1cc([S+](C)[O-])ccc1-c1nc2ncccc2[nH]1` (stereo not drawn) [sulmazole, Sulmazole], the “Reduction by yeast fRMsr” value at yeast fRMsr was “not reduced”. The “Reduction by mouse MsrA” value on mouse MsrA (DTT as a reductant) and at mouse MsrA (setting [1]) was “specifically reduced” throughout. Besides, on mouse MsrB2, the “Reduction by mouse MsrB2” value is on record as “not reduced”.
On to `O=[Se]([O-])[O-].[Na+].[Na+]` [sodium selenite], for which the “Influence on cell growth on Met and Met sulfoxide” value in the experiment with SK-Hep1 cells was “did not influence cell growth”.
Turning to `CN1CCCCC1CCN1c2ccccc2Sc2ccc([S+](C)[O-])cc21` (stereo not drawn) [Mesoridazine], at yeast fRMsr, the “Reduction by yeast fRMsr” value is listed as “no activity was observed”. For the same compound, the “Reduction by mouse MsrA” value at mouse MsrA (DTT as a reductant) and on mouse MsrA (setting [1]) was “reduced to thioridazine” throughout. The “Reduction by mouse MsrB2” value on mouse MsrB2 is on record as “no activity was observed”.
